Columns and labels:
[1] = tested on: obesity/diabetes mice (db/db mice); test: Anti-diabetes effect in obesity/diabetes mouse model; type: in vivo; conditions: for OGTT blood sugar: 12th day; for blood sugar level: 14 days; for blood sugar level / Adiponectin concentration in blood / Insulin concentration in blood: db/db mice; for Adiponectin concentration in blood / Insulin concentration in blood: 14th day
Source text: A mouse (db/db mouse; The Jackson Laboratory, USA) used in the present invention as an obesity/diabetes model is deficient in leptin genes and cannot control its appetite, and thus takes an excessive amount of food continuously. […] Thus, it can be a typical model of obesity and metabolic diseases. Additionally, it has a higher blood sugar level and can be a typical model of non-insulin-dependent diabetes mellitus. To investigate the effect of preventing and treating diabetes of macelignan, seven mice of 10 week-aged obesity/diabetes mice (db/db mice) were used per test group. To the test groups, macelignan suspended in 0.25% carboxymethyl cellulose was orally administered with the dose of 5 mg/kg (body weight), 10 mg/kg (body weight) and 25 mg/kg (body weight), once per day at a predetermined time, for 14 days. As a control, 0.25% carboxymethyl cellulose was orally administered alone to normal mice in the same dose as administered to the test group. As another control, 0.25% carboxymethyl cellulose was orally administered alone to obesity/diabetes mice in the same dose as administered to the test group. As still another control, 10 mg/kg (body weight) of troglitazone was orally administered. Blood sugar levels of the obesity/diabetes mice were determined from six days before the administration, once per three days. On the 12th day after the oral administration, the test group and the controls were subjected to the Oral Glucose Tolerance Test (OGTT). For this test, obesity/diabetes mice in the test group and the controls were fasted for at least 18 hours, glucose was orally administered to the mice in a dose of 3 g/kg (body weight), and then variations in the blood sugar were measured at 0 minutes, 30 minutes, 60 minutes and 120 minutes after the glucose administration. Additionally, on the 14th day of the oral administration, the final blood sugar level, insulin content in blood (mouse insulin ELISA Kit, Linco Research, o. EZRMI-BK, USA) and adiponectin content in blood (Adiponectin Quantikine ELISA Kit, R&D systems, No. MRP300, USA) were analyzed.

[2] = tested on: obesity/diabetes mice (db/db mice); test: Anti-obesity effect in obesity/diabetes mouse model; type: in vivo; conditions: for body weight / intramuscular triglyceride accumulation / white adipose tissue weight: 14th day, db/db mice
Description: To investigate the anti-obesity effect of macelignan, seven mice of 10 week-aged obesity/diabetes mice (db/db mice) were used per test group. To the test groups, macelignan suspended in […] carboxymethyl cellulose was orally administered in an administration dose of 5 mg/kg (body weight), 10 mg/kg (body weight) and 25 mg/kg (body weight), once per day at a predetermined time, for 14 days. As a control, 0.25% carboxymethyl cellulose was orally administered alone to normal mice in the same dose as administered to the test group. As another control, 0.25% carboxymethyl cellulose was orally administered alone to obesity/diabetes mice in the same dose as administered to the test group. As still another control, 10 mg/kg (body weight) of troglitazone was orally administered. From 6 days before the administration, diet intake and body weight of each obesity/diabetes mouse were measured once per three days. Additionally, on the 14th day after the oral administration, white adipose tissue weight and the amount of triglyceride accumulated in muscle cell were measured (Triglyceride measuring kit, Wako, No. 432-40201, Japan).

Oral toxicity test = conditions: rat, in vivo; oral administration, rats; read-out: lethal dose 50% (LD50)
[3] = tested on: target genes of PPARα (CD36, CPT-1, PDK4, ACO); test: Expression of target genes of PPARα in SK-HEP-1 liver cells (RT-PCR); type: cell-based; conditions: SK-HEP-1 cells, 1, 5, 10 and 25 μM, 24 hours, vs control
Description: SK-HEP-1 liver cells ([…]) cultured in a DMEM medium containing 10% FBS were pipetted into a multi-well plate in a cell count of 1×10^6 cells per well, and then further cultured for 5 hours. Different concentrations (1, 5, 10 and 25 μM) of macelignan were added to the medium of the cultured cells, and then the cells were left for 24 hours. The cells were collected and the total RNA was isolated by using TRIZOL (Invitrogen, USA). The total RNA isolated as described above was determined and cDNA was synthesized by using reverse transcriptase at 42° C. for 20 minutes with same amounts of RNA. The cDNA was subjected to RT-PCR by repeating 30 cycles of 95° C./1 minute, 56° C./30 seconds and 72° C./2 minutes with the following primers and Taq polymerase: primers for CD36 amplification (SEQ ID NO: 5(CGGCGATGAGAAAGCAGAA) and SEQ ID NO: 6(CAACCAGGCCCAGGAGC)), primers for CPT-1 amplification (SEQ ID NO: 7([…]) and SEQ ID NO: 8([…])), primers for PDK4 amplification (SEQ ID NO: 9([…]) and SEQ ID NO: 10(ATAAGTTAAGTGGGCCTGG)), and primers for ACO amplification (SEQ ID NO: 11([…]) and SEQ ID NO: 12([…])).

In the case of COc1cc(C[C@H](C)[C@H](C)Cc2ccc3c(c2)OCO3)ccc1O (single isomer, unassigned) [macelignan], the OGTT blood sugar ([1]; 0 min. after glucose 3 g/kg, 5 mg/kg oral) is reported as 379.14 ± 26.23 mg/dL, the OGTT blood sugar ([1]; 0 min. after glucose 3 g/kg, 10 mg/kg oral) is reported as 313.86 ± 51.40 mg/dL and the OGTT blood sugar ([1]; 0 min. after glucose 3 g/kg, 25 mg/kg oral) is reported as 319.14 ± 35.25 mg/dL. For the same compound, the blood sugar level ([1]; 5 mg/kg oral once per day) was 552.84 ± 47.95 mg/dL, the “Adiponectin concentration in blood” value ([1]; 5 mg/kg oral) was 5111.14 ± 925.88 ng/mL and the “Insulin concentration in blood” value ([1]; 5 mg/kg oral) was 26.33 ± 10.78 ng/mL. For the same compound, the blood sugar level ([1]; 10 mg/kg oral once per day) was 501.03 ± 43.67 mg/dL, the “Adiponectin concentration in blood” value ([1]; 10 mg/kg oral) was 6882.86 ± 250.05 ng/mL and the “Insulin concentration in blood” value ([1]; 10 mg/kg oral) was 16.66 ± 7.03 ng/mL. For the same compound, the blood sugar level ([1]; 25 mg/kg oral once per day) was 412.74 ± 31.15 mg/dL, the “Adiponectin concentration in blood” value ([1]; 25 mg/kg oral) was 7864.00 ± 808.21 ng/mL and the “Insulin concentration in blood” value ([1]; 25 mg/kg oral) was 8.51 ± 3.67 ng/mL. The OGTT blood sugar ([1]; 30 mins. after glucose 3 g/kg, 5 mg/kg oral) was 636.85 ± 63.29 mg/dL, the OGTT blood sugar ([1]; 30 mins. after glucose 3 g/kg, 10 mg/kg oral) was 670.14 ± 94.20 mg/dL and the OGTT blood sugar ([1]; 30 mins. after glucose 3 g/kg, 25 mg/kg oral) was 580.00 ± 101.37 mg/dL. The OGTT blood sugar ([1]; 60 mins. after glucose 3 g/kg, 5 mg/kg oral) was 613.38 ± 24.36 mg/dL, the OGTT blood sugar ([1]; 60 mins. after glucose 3 g/kg, 10 mg/kg oral) was 593.11 ± 27.15 mg/dL and the OGTT blood sugar ([1]; 60 mins. after glucose 3 g/kg, 25 mg/kg oral) was 509.70 ± 27.71 mg/dL. It also gave an OGTT blood sugar ([1]; 120 mins. after glucose 3 g/kg, 5 mg/kg oral) of 564.21 ± 29.86 mg/dL, an OGTT blood sugar ([1]; 120 mins. after glucose 3 g/kg, 10 mg/kg oral) of 529.46 ± 17.55 mg/dL and an OGTT blood sugar ([1]; 120 mins. after glucose 3 g/kg, 25 mg/kg oral) of 431.21 ± 59.18 mg/dL. It also gave a body weight ([2]; 5 mg/kg oral) of 46.32 ± 2.31 g, an intramuscular triglyceride accumulation ([2]; 5 mg/kg oral) of 24.7 ± 4.74 mg and a white adipose tissue weight ([2]; 5 mg/kg oral) of 4230 ± 284 mg. The body weight ([2]; 10 mg/kg oral) was 43.8 ± 2.94 g, the intramuscular triglyceride accumulation ([2]; 10 mg/kg oral) was 22.8 ± 5.76 mg and the white adipose tissue weight ([2]; 10 mg/kg oral) was 3900 ± 279 mg. It also gave a body weight ([2]; 25 mg/kg oral) of 41.80 ± 1.56 g, an intramuscular triglyceride accumulation ([2]; 25 mg/kg oral) of 20.2 ± 3.82 mg and a white adipose tissue weight ([2]; 25 mg/kg oral) of 2690 ± 154 mg. The diet intake ([2]; 5, 10 and 25 mg/kg oral, 14 days, test groups vs controls) was “no significant difference”, the LD50 (Oral toxicity test) was no less than 2000 mg/kg and the “mRNA expression of CD36, CPT-1, PDK-4 and ACO” value [3] was “significantly increased”.
